Reference: the NIST ThermoML archive (doi:10.1016/j.tca.2009.06.004)
Numbers after ± are expanded uncertainties.

Assay: excess molar enthalpy (molar enthalpy of mixing); xn = mol fraction of the nth substance listed
Conditions: 298.15 K, 101 kPa, Liquid, Calvet calorimetry

OCCOCCO [diethylene glycol] + CCO
Conditions | excess molar enthalpy [kcal/mol]
x2 = 0.1048 | 0.0182 ± 0.000478
x2 = 0.1991 | 0.0308 ± 0.000478
x2 = 0.2967 | 0.0461 ± 0.000717
x2 = 0.4009 | 0.0595 ± 0.000956
x2 = 0.4963 | 0.0626 ± 0.000956
x2 = 0.5879 | 0.0669 ± 0.000956
x2 = 0.7041 | 0.0602 ± 0.000956
x2 = 0.7958 | 0.0488 ± 0.000717
x2 = 0.9006 | 0.0289 ± 0.000478

OCC(O)CO [glycerol] + O
Conditions | excess molar enthalpy [kcal/mol]
x2 = 0.1028 | -0.0363 ± 0.000717
x2 = 0.2192 | -0.0698 ± 0.000956
x2 = 0.3038 | -0.0925 ± 0.0012
x2 = 0.3964 | -0.113 ± 0.00143
x2 = 0.5022 | -0.131 ± 0.00143
x2 = 0.5956 | -0.143 ± 0.00167
x2 = 0.6991 | -0.146 ± 0.00167
x2 = 0.8005 | -0.134 ± 0.00167
x2 = 0.8995 | -0.087 ± 0.0012

OCCOCCOCCO [triethylene glycol] + CCO
Conditions | excess molar enthalpy [kcal/mol]
x2 = 0.104 | 0.028 ± 0.000478
x2 = 0.2042 | 0.0586 ± 0.000717
x2 = 0.301 | 0.0837 ± 0.0012
x2 = 0.399 | 0.104 ± 0.0012
x2 = 0.5002 | 0.118 ± 0.00143
x2 = 0.599 | 0.121 ± 0.00143
x2 = 0.6993 | 0.112 ± 0.00143
x2 = 0.7995 | 0.0963 ± 0.0012
x2 = 0.8992 | 0.0621 ± 0.000956

OCCO [1,2-ethanediol] + O
Conditions | excess molar enthalpy [kcal/mol]
x2 = 0.1014 | -0.0416 ± 0.000717
x2 = 0.1994 | -0.0805 ± 0.000956
x2 = 0.2091 | -0.0829 ± 0.0012
x2 = 0.3051 | -0.115 ± 0.00143
x2 = 0.3674 | -0.134 ± 0.00167
x2 = 0.3995 | -0.141 ± 0.00167
x2 = 0.4807 | -0.153 ± 0.00167
x2 = 0.5455 | -0.159 ± 0.00191
x2 = 0.6144 | -0.167 ± 0.00191
x2 = 0.669 | -0.171 ± 0.00191
x2 = 0.7949 | -0.163 ± 0.00191
x2 = 0.8656 | -0.136 ± 0.00167
x2 = 0.915 | -0.101 ± 0.0012

OCCOCCO [diethylene glycol] + O
Conditions | excess molar enthalpy [kcal/mol]
x2 = 0.1026 | -0.0657 ± 0.000956
x2 = 0.2012 | -0.122 ± 0.00143
x2 = 0.2094 | -0.125 ± 0.00143
x2 = 0.3067 | -0.177 ± 0.00191
x2 = 0.4068 | -0.223 ± 0.00239
x2 = 0.4937 | -0.248 ± 0.00263
x2 = 0.5018 | -0.255 ± 0.00287
x2 = 0.6003 | -0.285 ± 0.00311
x2 = 0.6996 | -0.298 ± 0.00311
x2 = 0.7998 | -0.28 ± 0.00311
x2 = 0.8999 | -0.205 ± 0.00239
x2 = 0.9002 | -0.207 ± 0.00239
x2 = 0.9498 | -0.129 ± 0.00143

OCCOCCOCCO [triethylene glycol] + O
Conditions | excess molar enthalpy [kcal/mol]
x2 = 0.1291 | -0.105 ± 0.0012
x2 = 0.2167 | -0.188 ± 0.00215
x2 = 0.3145 | -0.258 ± 0.00287
x2 = 0.4016 | -0.32 ± 0.00335
x2 = 0.5006 | -0.384 ± 0.00406
x2 = 0.6006 | -0.431 ± 0.00454
x2 = 0.6999 | -0.448 ± 0.00478
x2 = 0.7985 | -0.422 ± 0.00454
x2 = 0.9013 | -0.312 ± 0.00335
